In patent publication US5587392A, “Azolyl methyl phenyl derivatives having aromatase inhibitory activity” (Mochida Pharmaceutical Co., Ltd., priority 1994, dated 1996):
Values joined by “and” are separate entries in the source; they are usually repeats but may differ in a detail not shown here. Identical values can stand only once.

Experiments:
[1] = tested on: cleavage enzymes of cholesterol side chains; settings: related art; cited from earlier work
[2] = tested on: plasma 17α-hydroxyprogesterone; assay: Elevating effect on plasma 17α-hydroxyprogesterone; format: in vivo, male SD rats
[3] = tested on: biosynthesis of aldosterone; settings: related art; cited from earlier work
[4] = tested on: plasma aldosterone; assay: Lowering effect on plasma aldosterone; format: in vivo, male SD rats

SMILES | decrease of glucocorticoids and mineral corticoids [1] | potency to inhibit cleavage enzymes of cholesterol side chains [1] | minimal effective dose ([2]; Rattus norvegicus, po, read-out: dose elevating plasma 17α-hydroxyprogesterone level) [mg/kg] | Elevation in plasma 17α-hydroxyprogesterone ([2]; rat, in vivo) | change of plasma levels of 17α-hydroxyprogesterone ([2]; rat, in vivo) | inhibition of the biosynthesis of aldosterone [3] | minimal effective dose ([4]; Rattus norvegicus, po, read-out: dose decreasing plasma aldosterone level) [mg/kg] | Decrease in plasma aldosterone ([4]; rat, in vivo) | change of plasma levels of aldosterone ([4]; rat, in vivo)
CCC1(c2ccc(N)cc2)CCC(=O)NC1=O (stereo not drawn) [AG, Aminoglutethimide] | causes therefore the decrease of glucocorticoids and mineral corticoids | higher potency to inhibit cleavage enzymes of cholesterol side chains | – | – | – | – | – | – | –
N#Cc1ccc(C2CCCc3cncn32)cc1 (stereo not drawn) [CGS 16949A, 5-(p-cyanophenyl)-5,6,7,8-tetrahydroimidazo[1,5-a]pyridine] | – | – | ≥ 0.1 | 169% and 313% | did change | inhibits the biosynthesis of aldosterone | ≥ 0.1 | 37% and 55% | did change
